{"source": "patent US8759546B2", "about": "“Physical nano-complexes for preventing and treating cancer and method for manufacturing the same” (Gold Nanotech Inc., priority 2012, dated 2014)", "key": {"[1]": {"assay": "superoxide radical scavenging effect", "assay_type": "biochemical", "conditions": "compared to vitamin E alone", "source_text": "Refer to FIG. 2 for a schematic diagram of the anti-oxidant effect of the EGCG-nanogold complexes."}, "[2]": {"test_system": "bladder cancer cells (MBT-2)", "assay": "viability of MBT-2 cells at 48 hour post-treatment", "assay_type": "cell-based", "procedure": "(§1) Firstly, to evaluate the tumor cytotoxicity of EGCG and/or nanogold, we examined viabilities of bladder cancer cells (MBT-2) and African green monkey kidney cells (Vero cell acts as a normal cell) at 48 hour post-EGCG or -nanogold treatment. Referring to FIG. 3, which is a schematic diagram of the cell viability of Vero cells and MBT-2 cells under different treating concentration of EGCG and nanogold. […] Refer to FIG. 4 for a schematic diagram of the concentrations of EGCG and nanogold mediated the 50% of cell growth inhibition of Vero cell and MBT-2 cell (IC50). […] In contrast, the Vero cell numbers were not changed in the presence of EGCG or nanogold."}, "[3]": {"test_system": "African green monkey kidney cells (Vero cell)", "assay": "viability of Vero cells at 48 hour post-treatment", "assay_type": "cell-based", "conditions": "in the presence of EGCG or nanogold", "procedure": "as §1"}, "MBT-2 cells [4]": {"test_system": "MBT-2 cells", "assay": "apoptosis detection by Annexin-V and PI staining, flow cytometry", "assay_type": "cell-based", "conditions": "in 48 hours", "source_text": "Cell apoptosis features some morphological alterations, such as chromatin condensation, membrane blebbing, inter-nucleosomal degradation of DNA, and apoptotic body formation. Previous study reported that EGCG can induce apoptosis via the PI3K/Akt pathway and Bcl-2 family proteins in T24 human bladder cancer cells. […] The cells in test were subjected to flow cytometry analysis, whereby apoptotic bodies can be detected by Annexin-V and PI staining Refer to FIG. […]"}, "MBT-2 cells [5]": {"test_system": "MBT-2 cells", "assay": "cell cycle of MBT-2 cells", "assay_type": "cell-based", "procedure": "Following, the mechanism of the EGCG and nanogold mediated cell apoptosis was investigated. Refer to FIG. 7 for a table of the cell cycle of MBT-2 cell treated by various concentrations of EGCG and nanogold. […] The MBT-2 cells otherwise underwent G0/G1 arrest when the doses of EGCG (50 μM) and nanogold (2 ppm) were increased."}, "caspase-3 and -7": {"test_system": "caspase-3 and -7", "assay": "Caspase-3/7 activity in MBT-2 cells", "assay_type": "cell-based", "conditions": "12 and 24 hours treatment", "procedure": "To assure that the EGCG and nanogold mediated apoptosis are triggered by the caspase effectors, we then examined expressions of the apoptosis-dependent enzymes caspase-3 and -7. Refer to FIG. 8 for a schematic diagram of Caspase-3/7 activity after EGCG and/or nanogold treatment for 12 and 24 hours."}}}
{"substance": "epigallocatechin-3-gallate [EGCG]", "values": [{"measurement": "superoxide radical scavenging activity", "setting": "[1]", "result": "significant superoxide radical scavenging activity"}, {"measurement": "MBT-2 cell numbers, % of the control", "setting": "[2]; EGCG and nanogold 2 ppm, combined or alone", "result": 49.7, "unit": "%"}, {"measurement": "viability of MBT-2 cells", "setting": "[2]; different treating concentrations", "result": "reduce the viability of MBT-2 cells in a concentration-dependent manner"}, {"measurement": "Vero cell numbers", "setting": "[3]", "result": "not changed"}, {"measurement": "percentage of Annexin-V-positive cells", "setting": "MBT-2 cells [4]", "result": 16.6, "unit": "%"}, {"measurement": "cell cycle arrest", "setting": "MBT-2 cells [5]; increased doses: EGCG 50 μM, nanogold 2 ppm", "result": "G0/G1 arrest"}, {"measurement": "cell cycle arrest", "setting": "MBT-2 cells [5]; lower doses", "result": "arrested in the S phase"}, {"measurement": "caspase-3 and -7, fold increase versus the vehicle-alone controls", "setting": "caspase-3 and -7", "result": "2.42±0.43", "unit": "fold"}]}
